Experimental data: patent US6455516B1, “Method and compounds for use in the treatment of steroid induced states of the central nervous system” (priority 1998, dated 2002)
Entries after “also recorded” stand apart in the source; their conditions may differ.

Legend:
[1] = Steroids tested by the inventors as agonist, blocker or antagonist to the sedative steroids (method not given)
[2] = tested on: slices from hippocampal CA1 region; experiment: Hippocampus slice in vitro model: induced population spike (POPSP) over the synapse in area CA1; assay type: cell-based, rat; conditions: for Blocking of the effect of 3alpha-hydroxy-5alpha-pregnan-20-one on the signal/POPSP / Blocking of the effect of 3alpha-hydroxy-5beta-pregnan-20-one on the signal/POPSP: given simultaneously, equimolar dose in the nM range; for Effect on the signal transmitted over the synapse / amplitude of the POPSP: steroid alone
From the text: In another preliminary study, the hippocampus slice model in the female rat of the luteal phase was used. This corresponds to the phase in humans when most of CNS effects are noticed in women with epilepsy and premenstrual syndrome.
In the hippocampus slice in vitro model the effect of steroids on an electrical signal over the synapse in the area CA1 was investigated. The stimulation is on one side of the synapse and a measurement of the response is made on the other side. A small droplet containing the steroid can be placed on top of the synapse and thus influence the synaptic transmission. Secondly a steroid can also be dissolved in the nutrient fluid perfusing the hippocampous slice. The steroid in the perfusion will influence the whole slice including the synapse under investigation.

Sprague-Dawley rats [3] = experiment: EEG-threshold method for deep anaesthesia ("silent second"), continuous intravenous infusion; assay type: in vivo, rat; conditions: for Intercept of regression line (anaesthetic steroid dosage needed for SS at zero 3beta-hydroxy-5alpha-pregnan-20-one): FIG. 1 / FIG. 2; for Optimal dose rate (gives the lowest threshold dose): rats
Procedure: The present invention is based on experiments in vivo, performed to confirm the blocking effect of 3beta-hydroxy-5alpha-pregnan-20-one on 3alpha-hydroxy-5alpha-pregnan-20-one in a preliminary study. 3alpha-hydroxy-5alpha-pregnan-20-one dissolved in 20% cyclodextrin was given to male Sprague-Dawley rats in an i.v. infusion dose rate of close to 3.0 mg/kg/min. This is the optimal dose rate for 3alpha-hydroxy-5alpha-pregnan-20-one. 3alpha-hydroxy-5alpha-pregnan-20-one and 3beta-hydroxy-5alpha-pregnan-20-one were dissolved, 50/50%, in water solution containing cyclodextrin. The control solution only contained 3alpha-hydroxy-5alpha-pregnan-20-one. The amount of 3alpha-hydroxy-5alpha-pregnan-20-one needed to obtain silent second, the anaesthesia criteria, was 21% higher with the combined solution compared to 3alpha-hydroxy-5alpha-pregnan-20-one alone, showing an interaction between 3alpha-hydroxy-5alpha-pregnan-20-one and 3beta-hydroxy-5alpha-pregnan-20-one in vivo. There was no overlap between the effect of the combined solution and control solution of 3alpha-hydroxy-5alpha-pregnan-20-one.
In further studies, performed after the priority date, the present invention was tested in in vivo experiments in which the blocking effect of 3beta-hydroxy-5alpha-pregnan-20-one was assessed by investigating the dosage of 3alpha-hydroxy-5alpha-pregnan-20-one and 3alpha-hydroxy-5beta-pregnan-20-one needed to induce a deep anaesthesia in the presence of increasing amounts of 3beta-hydroxy-5alpha-pregnan-20-one. An EEG-threshold method for deep anaesthesia was used. The method is developed to determine the sensitivity in the central nervous system (CNS) to the depressant drugs, mainly intravenous anaesthetic agents. Drugs are administered into the tail vein by continuous intravenous infusion while an Electro-Encephalo-Gram (EEG) is recorded. The infusion was immediately stopped and infusion time recorded, when the first burst of EEG suppression for one second or more is noted, the threshold criterion for a deep anaethesia, the “silent second” (SS). The appearance of SS is considered as a deeper anaesthesia state than the loss of righting reflex. The threshold dose (mg/kg) is calculated by multiplying the time to obtain SS with the dose rate (mg/kg/min). The threshold doses of the tested drug indicates its relative anaesthetic potency. The threshold doses are also related to CNS excitability. An increase or decrease in CNS excitability can be measured by a change in threshold doses of anesthetics. The dose rates which give the lowest threshold dose is considered as the optimal dose rate. The optimal dose rate and anaesthetic threshold dosage for 3alpha-hydroxy-5alpha-pregnan-20-one and […] at several times and the optimal dose rate is close to 3.0 mg/kg/min for both 3alpha-hydroxy-5alpha-pregnan-20-one and 3alpha-hydroxy-5beta-pregnan-20-one. The anaesthetic threshold dosage is for 3alpha-hydroxy-5alpha-pregnan-20-one between 6.5 to 8.0 mg/kg and for 3alpha-hydroxy-5beta-pregnan-20-one between 9 to 11 mg/kg depending on the age of the rats and the solvent used.
3alpha-hydroxy-5alpha-pregnan-20-one and […] dissolved in 20% cyclodextrin were given to Sprague-Dawley rats in an intravenous infusion at the optimal dose rate. 3beta-hydroxy-5alpha-pregnan-20-one was also dissolved in a 20% cyclodextrin solution and given simultaneously in a dosage 100%, 123% and 143% of the 3alpha-hydroxy-5alpha-pregnan-20-one dosage (n=11) and 70%, 100%, 123% and 143% of the 3alpha-hydroxy-5beta-pregnan-20-one dosage (n=16). […] The correlation between the dosage 3beta-hydroxy-5alpha-pregnan-20-one given and the dosage of 3alpha-hydroxy-5alpha-pregnan-20-one and 3alpha-hydroxy-5beta-pregnan-20-one needed to obtain the criterion of SS is highly significant (FIG. 1 and FIG. 2).

Sprague-Dawley rats [4] = conditions: a result found by several groups and described in earlier reports; cited from earlier work

3beta-hydroxy-pregnenolone
Effect as agonist, blocker or antagonist to the sedative steroids [1]: no effect either as an agonist or blocker or antagonist
Blocking of the effect of 3alpha-hydroxy-5alpha-pregnan-20-one on the signal/POPSP ([2]; local application): no blocking effect
Blocking of the effect of 3alpha-hydroxy-5beta-pregnan-20-one on the signal/POPSP ([2]; local application): no blocking effect

CC(=O)[C@H]1CC[C@H]2[C@@H]3CC[C@H]4C[C@@H](O)CC[C@]4(C)[C@H]3CC[C@]12C [3beta-hydroxy-5alpha-pregnan-20-one]
Correlation coefficient r: 3alpha-hydroxy-5alpha-pregnan-20-one dosage needed for SS vs 3beta-hydroxy-5alpha-pregnan-20-one dosage (Sprague-Dawley rats [3]; FIG. 1, p<0.001, df=9): 0.90
Slope of regression line: 3alpha-hydroxy-5alpha-pregnan-20-one dosage needed for SS vs 3beta-hydroxy-5alpha-pregnan-20-one dosage (Sprague-Dawley rats [3]; FIG. 1, slope p<0.001 different from 0): 0.43
Correlation coefficient r: 3alpha-hydroxy-5beta-pregnan-20-one dosage needed for SS vs 3beta-hydroxy-5alpha-pregnan-20-one dosage (Sprague-Dawley rats [3]; FIG. 2, P<0.001, df=14): 0.78
Slope of regression line: 3alpha-hydroxy-5beta-pregnan-20-one dosage needed for SS vs 3beta-hydroxy-5alpha-pregnan-20-one dosage (Sprague-Dawley rats [3]; FIG. 2, slope p<0.001 different from 0): 0.46
Effect on the anaesthetic effect of 3alpha-hydroxy-5beta-pregnan-20-one in vivo (Sprague-Dawley rats [3]; given simultaneously i.v. at 70%, 100%, 123% and 143% of the 3alpha-hydroxy-5beta-pregnan-20-one dosage, dose dependent): can block the effect; also recorded: decreased the anaesthetic potency
Effect on the anaesthetic/CNS depressing effect of 3alpha-hydroxy-5alpha-pregnan-20-one in vivo (Sprague-Dawley rats [3]; given simultaneously i.v. at 100%, 123% and 143% of the 3alpha-hydroxy-5alpha-pregnan-20-one dosage, dose dependent): can block the effect; also recorded: decreased the anaesthetic potency
Amount of 3alpha-hydroxy-5alpha-pregnan-20-one needed to obtain silent second, higher with combined solution compared to 3alpha-hydroxy-5alpha-pregnan-20-one alone (Sprague-Dawley rats [3]; preliminary study, 50/50% with 3alpha-hydroxy-5alpha-pregnan-20-one in cyclodextrin solution, i.v. infusion, male Sprague-Dawley rats): 21%
Effect by itself on signal transmission over the synapse ([2]; alone, up to micromolar range, not different from vehicle): no effect on signal transmission; also recorded: no effect by itself
Blocking of the effect of 3alpha-hydroxy-5alpha-pregnan-20-one on the signal/POPSP ([2]; local application): can be blocked; also recorded: totally inhibited
Blocking of the effect of 3alpha-hydroxy-5beta-pregnan-20-one on the signal/POPSP ([2]; local application): can be blocked; also recorded: can inhibit the effect
Blocking of the effect of 3alpha-hydroxy-5alpha-pregnan-20-one when perfused to the whole hippocampus slice ([2]; perfusion of whole slice): same blocking effect
Interaction with Muscimol (an agonist to GABA) on the GABA-A receptor ([2]; together with Muscimol, FIG. 5): does not interact with Muscimol
Effect by itself on CNS activities (Sprague-Dawley rats [4]): no effect on CNS activities

CC(=O)[C@H]1CC[C@H]2[C@@H]3CC[C@@H]4C[C@H](O)CC[C@]4(C)[C@H]3CC[C@]12C [3alpha-hydroxy-5beta-pregnan-20-one, reference compound]
Intercept of regression line (anaesthetic steroid dosage needed for SS at zero 3beta-hydroxy-5alpha-pregnan-20-one) (Sprague-Dawley rats [3]): 9.1 mg/kg
Optimal dose rate (gives the lowest threshold dose) (Sprague-Dawley rats [3]; i.v. infusion): ~3.0 mg/kg/min
Effect on the signal transmitted over the synapse / amplitude of the POPSP ([2]; local application): inhibition of the signal transmitted over the synapse; also recorded: inhibits the amplitude of the POPSP

CC(=O)C1CCC2C3CC=C4CC(OS(=O)(=O)O)CCC4(C)C3CCC12C (stereo not shown) [Pregnenolone sulphate]
Blocking of the effect of 3alpha-hydroxy-5beta-pregnan-20-one on the signal/POPSP ([2]; local application): could neither block
Own effect on the signal in high micromolar concentrations ([2]; high micromolar concentrations): excitatory

CC(=O)[C@H]1CC[C@H]2[C@@H]3CC[C@H]4C[C@H](O)CC[C@]4(C)[C@H]3CC[C@]12C [3alpha-hydroxy-5alpha-pregnan-20-one, reference compound]
Intercept of regression line (anaesthetic steroid dosage needed for SS at zero 3beta-hydroxy-5alpha-pregnan-20-one) (Sprague-Dawley rats [3]): 6.9 mg/kg
Optimal dose rate (gives the lowest threshold dose) (Sprague-Dawley rats [3]; i.v. infusion): ~3.0 mg/kg/min
Reduction of the amplitude of the induced population spike ([2]; local application, FIG. 3): 45%
Effect on the signal transmitted over the synapse / amplitude of the POPSP ([2]; local application): inhibition of the signal transmitted over the synapse

CC(=O)[C@H]1CC[C@H]2[C@@H]3CC[C@@H]4C[C@@H](O)CC[C@]4(C)[C@H]3CC[C@]12C [3beta-hydroxy-5beta-pregnan-20-one]
Effect as agonist, blocker or antagonist to the sedative steroids [1]: no effect either as a blocker or as an antagonist
Blocking of the effect of 3alpha-hydroxy-5alpha-pregnan-20-one on the signal/POPSP ([2]; local application): no blocking effect
Blocking of the effect of 3alpha-hydroxy-5beta-pregnan-20-one on the signal/POPSP ([2]; local application): no blocking effect
